# Results from US20100061982A1, “3-SUBSTITUTED-1H-INDOLE, 3-SUBSTITUTED-1H-PYRROLO[2,3-B]PYRIDINE AND 3-SUBSTITUTED-1H-PYRROLO[3,2-B]PYRIDINE COMPOUNDS, THEIR USE AS MTOR KINASE AND PI3 KINASE INHIBITORS, AND THEIR SYNTHESES” (priority 2008, published 2010).
# Like-named read-outs stand apart in the source and are kept apart here.
# Legend:
# [1] = PAMPA permeability pH 7.4
# [2] = biological target: PI3K alpha (Homo sapiens, UniProt P42336); assay: PI3K-alpha Fluorescence Polarization Assay; assay type: biochemical; details: read-out: PI3K alpha Mean IC50
# [3] = physchem; details: pH 7.4, aqueous buffer
# [4] = biological target: T1, mTOR (Homo sapiens, UniProt P42345); assay: mTOR Enzyme Assay (DELFIA, purified enzyme); assay type: biochemical; set-up: FLAG; details: read-out: mTOR Mean IC50
# [5] = Buffer Stability (37° C.)
# [6] = In vivo blood/plasma and tumor levels of prodrug and metabolites after 50 mg, kg po; details: 50 mg
# [7] = Plasma Stability (37° C.), rat
# [8] = Microsome Stability (15 min), rat; assay type: in vitro ADME; details: microsomes, Phase I (NADPH), read-out: Microsome Stability (15 min) T ½ Phase I rat
# [9] = Plasma Stability (37° C.), nude mouse
# [10] = Microsome Stability (15 min), human; assay type: in vitro ADME; details: microsomes, Phase I (NADPH), read-out: Microsome Stability (15 min) T ½ Phase I human
# [11] = biological target: T1, mTOR; details: read-out: mTOR IC50; mTOR complexes / mTOR enzymes; cited from earlier work
# [12] = test system: human tumor xenograft models; details: cited from earlier work
# [13] = test system: acute lymphoblastic leukemia; details: in vivo; cited from earlier work
# Sequence of PI3K alpha (P42336 whole entry, species assumed): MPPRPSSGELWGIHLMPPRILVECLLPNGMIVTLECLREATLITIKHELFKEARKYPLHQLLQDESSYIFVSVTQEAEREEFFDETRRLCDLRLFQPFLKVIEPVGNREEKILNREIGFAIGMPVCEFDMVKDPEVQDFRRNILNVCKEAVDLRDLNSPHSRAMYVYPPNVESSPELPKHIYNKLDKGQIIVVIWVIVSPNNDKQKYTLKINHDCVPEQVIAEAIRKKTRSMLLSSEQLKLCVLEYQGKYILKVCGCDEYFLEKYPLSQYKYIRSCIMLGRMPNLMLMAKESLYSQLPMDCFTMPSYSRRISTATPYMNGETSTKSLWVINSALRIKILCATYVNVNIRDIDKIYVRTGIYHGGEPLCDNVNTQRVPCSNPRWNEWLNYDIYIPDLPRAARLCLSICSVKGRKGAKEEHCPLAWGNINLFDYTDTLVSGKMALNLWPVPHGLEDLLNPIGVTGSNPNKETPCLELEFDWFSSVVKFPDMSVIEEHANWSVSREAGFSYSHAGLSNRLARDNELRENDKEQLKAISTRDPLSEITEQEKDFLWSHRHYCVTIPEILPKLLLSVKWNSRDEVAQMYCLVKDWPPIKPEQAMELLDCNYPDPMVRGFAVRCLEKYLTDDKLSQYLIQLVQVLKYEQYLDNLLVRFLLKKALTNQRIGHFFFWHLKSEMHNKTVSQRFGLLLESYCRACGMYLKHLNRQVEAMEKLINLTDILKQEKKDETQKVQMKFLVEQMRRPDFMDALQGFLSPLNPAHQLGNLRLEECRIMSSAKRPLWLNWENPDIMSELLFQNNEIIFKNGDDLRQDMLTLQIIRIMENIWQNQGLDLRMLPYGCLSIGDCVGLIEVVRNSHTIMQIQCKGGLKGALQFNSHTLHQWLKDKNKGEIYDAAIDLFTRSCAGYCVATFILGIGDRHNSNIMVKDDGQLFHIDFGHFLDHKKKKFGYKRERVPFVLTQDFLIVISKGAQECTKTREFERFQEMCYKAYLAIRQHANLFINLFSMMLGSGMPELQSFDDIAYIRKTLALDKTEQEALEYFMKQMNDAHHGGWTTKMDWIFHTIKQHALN
# Sequence of PI3K alpha (P27986 whole entry partner, species assumed): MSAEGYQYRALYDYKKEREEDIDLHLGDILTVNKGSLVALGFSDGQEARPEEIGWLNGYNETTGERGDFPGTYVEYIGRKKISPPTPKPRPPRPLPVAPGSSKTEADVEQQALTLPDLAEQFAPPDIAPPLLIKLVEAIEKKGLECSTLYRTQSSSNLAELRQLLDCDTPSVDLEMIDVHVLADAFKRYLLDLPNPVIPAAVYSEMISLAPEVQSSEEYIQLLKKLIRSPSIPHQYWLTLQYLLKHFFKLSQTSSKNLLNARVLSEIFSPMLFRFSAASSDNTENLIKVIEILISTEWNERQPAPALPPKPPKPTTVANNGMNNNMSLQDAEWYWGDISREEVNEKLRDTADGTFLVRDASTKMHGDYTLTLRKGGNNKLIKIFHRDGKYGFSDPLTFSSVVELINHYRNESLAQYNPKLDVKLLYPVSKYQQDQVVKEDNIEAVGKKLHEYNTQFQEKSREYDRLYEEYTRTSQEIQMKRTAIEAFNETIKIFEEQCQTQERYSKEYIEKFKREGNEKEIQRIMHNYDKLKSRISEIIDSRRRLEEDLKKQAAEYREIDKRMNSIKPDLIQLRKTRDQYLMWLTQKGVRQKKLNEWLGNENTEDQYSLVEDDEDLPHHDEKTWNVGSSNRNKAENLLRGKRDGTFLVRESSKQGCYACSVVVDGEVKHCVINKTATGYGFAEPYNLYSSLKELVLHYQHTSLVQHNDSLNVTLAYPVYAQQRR
smiles,measurement,setting,value
"COc1ccc2[nH]c(-c3ccccc3)c(/C=C3\Oc4cc(OP(=O)(O)O)cc(OP(=O)(O)O)c4C3=O)c2c1 [Example 38, (2Z)-2-[(5-methoxy-2-phenyl-1H-indol-3-yl)methylene]-3-oxo-2,3-dihydro-1-benzofuran-4,6-diyl bis[dihydrogen (phosphate)]]",PAMPA Pe,[1],0.01 10e−6 cm/s
same,IC50,[2],890 nM
same,solubility,[3],> 100 µg/mL
same,IC50,[4],985 nM
"COc1ccc2[nH]c(-c3ccccc3)c(/C=C3\Oc4cc(OC(=O)N(c5ccccc5)c5ccccc5)cc(OC(=O)N(c5ccccc5)c5ccccc5)c4C3=O)c2c1 [Example 11, (2Z)-2-[(5-methoxy-2-phenyl-1H-indol-3-yl)methylene]-3-oxo-2,3-dihydro-1-benzofuran-4,6-diyl bis(diphenylcarbamate)]",Buffer Stability (37° C.) % Remaining (at 16-23 hours) SGF,[5]; SGF,100%
same,Buffer Stability (37° C.) % Remaining (at 16-23 hours) SIF,[5]; SIF,98%
same,Buffer Stability (37° C.) % Remaining (at 16-23 hours) pH 1,[5]; pH 1,99%
same,Buffer Stability (37° C.) % Remaining (at 16-23 hours) pH 4.5,[5]; pH 4.5,103%
same,Buffer Stability (37° C.) % Remaining (at 16-23 hours) pH 6.6,[5]; pH 6.6,100%
same,Buffer Stability (37° C.) % Remaining (at 16-23 hours) pH 7.4,[5]; pH 7.4,100%
same,Buffer Stability (37° C.) % Remaining (at 16-23 hours) pH 9,[5]; pH 9,89%
same,plasma prodrug concentration,[6]; 0.5 h,"bql, bql"
same,plasma prodrug concentration,[6]; 2 h,"bql, bql"
same,Plasma Stability (37° C.) % Remaining (3-3.5 hours) rat,[7],95%
same,PAMPA Pe,[1],1.14 10e−6 cm/s
same,IC50,[2],> 5050 nM
same,solubility,[3],1 µg/mL
same,half-life,[8],> 30 min
same,Plasma Stability (37° C.) % Remaining (3-3.5 hours) nude mouse,[9],85%
same,half-life,[10],23 min
"COc1ccc2[nH]c(-c3ccccc3)c(/C=C3\Oc4cc(OP(=O)(O)O)ccc4C3=O)c2c1 [Example 27, (2Z)-2-[(5-methoxy-2-phenyl-1H-indol-3-yl)methylene]-3-oxo-2,3-dihydro-1-benzofuran-6-yl dihydrogen phosphate]",PAMPA Pe,[1],0 10e−6 cm/s
same,IC50,[2],123 nM
same,solubility,[3],65 µg/mL
same,IC50,[4],2450 nM
same,half-life,[8],19 min
"FC(F)c1nc2ccccc2n1-c1nc(N2CCOCC2)nc(N2CCOCC2)n1 [ZSTK474, 2-(2-difluoromethylbenzoimidazol-1-yl)-4,6-dimorpholino-1,3,5-triazine]",IC50,[11],> 10000 nM
same,tumor growth in mouse human xenograft cancer models,"[12]; chronic oral administration, 400 mg/kg, A549, PC-3, WiDr",completely inhibited growth
"Oc1cccc(-c2nc(N3CCOCC3)c3oc4ncccc4c3n2)c1 [PI103, 3-(4-(4-morpholinyl)pyrido[3′,′: 4,5]furo[3,2-d]pyrimidin-2-yl)phenol]",activity in human tumor xenograft models,"[12]; I.P. dosing in mice, U87MG, PC3, MDA-MB-468, MDA-MB-435, HCT 116, SKOV3, IGROV-1",demonstrated activity
CO[C@H]1C[C@@H]2CC[C@@H](C)[C@@](O)(O2)C(=O)C(=O)N2CCCC[C@H]2C(=O)O[C@H]([C@H](C)C[C@@H]2CC[C@@H](OC(=O)C(C)(CO)CO)[C@H](OC)C2)CC(=O)[C@H](C)/C=C(\C)[C@@H](O)[C@@H](OC)C(=O)[C@H](C)C[C@H](C)/C=C/C=C/C=C/1C [Torisel],activity in NOS/SCID xenograft mouse model of acute lymphoblastic leukemia,[13],active
